Kd and IC50 data for 37 compounds are collected here from patent US20230096028A1, “BICYCLIC HETEROCYCLYL COMPOUNDS AND USES THEREOF” (Revolution Medicines, Inc., priority 2019, published 2023).

What is called Kd is the equilibrium constant for the complex coming apart. Broadly, the IC50 is the point on the concentration scale where inhibition reaches its midpoint.

For assay [1], the target named is T1, SOS1 catalytic domain (residues 564-1049) (Homo sapiens, UniProt Q07889).
T1 sequence (Q07889 564-1049): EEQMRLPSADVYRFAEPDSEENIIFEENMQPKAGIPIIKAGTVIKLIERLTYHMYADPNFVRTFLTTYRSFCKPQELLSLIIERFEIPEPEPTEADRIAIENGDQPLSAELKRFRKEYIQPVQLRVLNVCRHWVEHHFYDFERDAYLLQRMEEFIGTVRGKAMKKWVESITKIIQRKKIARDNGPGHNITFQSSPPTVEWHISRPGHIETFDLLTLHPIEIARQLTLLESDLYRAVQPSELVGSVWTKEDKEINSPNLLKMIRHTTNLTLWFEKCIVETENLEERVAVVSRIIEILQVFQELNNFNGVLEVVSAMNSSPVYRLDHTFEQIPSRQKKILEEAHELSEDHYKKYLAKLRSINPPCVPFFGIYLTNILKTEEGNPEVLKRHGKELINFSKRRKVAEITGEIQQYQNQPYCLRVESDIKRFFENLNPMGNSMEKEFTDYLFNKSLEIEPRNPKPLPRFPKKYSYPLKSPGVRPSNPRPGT
Kind of assay: Potency Assay: binding affinity to SOS1 using Surface Plasmon Resonance (SPR). Particulars: immobilized SOS1 catalytic domain (residues 564-1049), read-out: SOS1 SPR Equilibrium Kd. The arrangement: SOS1 catalytic domain (residues 564-1049) immobilized on a sensor chip. On the procedure:
Data was reported as equilibrium dissociation constant (Kd) values.
Using a GE Biacore 8K SPR instrument, avi-tagged SOS1 catalytic domain protein was immobilized to a level of approximately 6000 response units (RU) on a streptavidin-coated SPR sensor chip in assay buffer containing 0.01 M HEPES, 0.15 M NaCl and 0.05% v/v Surfactant P20. […] For each test compound, a separate 0 μM sample was generated for use during subsequent double reference subtraction. Serially for each test compound, individual dilution samples were flowed over the immobilized SOS1 protein at a flow rate of 50 μL/minute to monitor the association with SOS1. Dissociation of bound test compound from the SOS1 protein was immediately monitored by flowing assay buffer over the sensor surface and monitoring the decrease in binding signal back to the baseline level seen in the absence of compound. This was repeated for all compound dilutions in each series. The binding level response for each test compound concentration was noted immediately prior to the end of the association phase, and a secondary plot generated showing binding response level versus test compound concentration generated for each compound dilution series.

Assay [2] concerns the target T1, SOS1 catalytic domain (residues 564-1049). As to the kind of experiment: Mode of Action Assay: inhibition of SOS1 nucleotide exchange activity (SOS1 TR-FRET IC50 Assay). (In TR-FRET formats the signal depends on donor and acceptor labels being close together.)
The test system of assay [3] is PC-9 cells (EGFR Ex19Del). As to the kind of experiment: Potency Assay: pERK (SOS1 pERK IC50 Assay, AlphaLISA SureFire Ultra p-ERK1/2). The class given is cell-based. The conditions noted are these: Homo sapiens, read-out: SOS1 pERK IC50. An outline of the steps:
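PC-9 (EGFR Ex19Del) cells plated overnight, then treated 1 h at 37° C. with 10-point 3-fold dilutions (top 10 μM final) in duplicate. Lysate pERK1/2 measured by AlphaLISA SureFire Ultra; IC50 from 4-parameter sigmoidal fit.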
On the technique in general: Bead proximity is the source of the signal in Alpha formats.

[4] abbreviates: PC-9 cells (EGFR Ex19Del), 1 hour incubation, AlphaLISA p-ERK1/2.

Structures can show the parent of a compound that is named as a salt. Where two headings read alike, the source gives them in different places. A value given as a limit tells only on which side of the number the result lay.

`C[C@@H](Nc1nc(Cl)nc2c1CN(S(=O)(=O)N1CCN(C)CC1)C2)c1cc(N)cc(C(F)(F)F)c1` [Example 25]: in assay [1], the Kd was less than 400 nM. For the same compound, the IC50 in assay [2] was less than 1000 nM.
Consider `C[C@@H](Nc1nc(Cl)nc2c1CN(S(=O)(=O)N1CC(C#N)C1)C2)c1cc(N)cc(C(F)(F)F)c1` [Example 26], for which the Kd in assay [1] was greater than 400 nM.
On the same count and under the same terms, next, `C[C@@H](Nc1nc(Cl)nc2c1CN(S(=O)(=O)N1CCNCC1)C2)c1cc(N)cc(C(F)(F)F)c1` [Example 28]: less than 400 nM.
`Cc1nc2c(c(N[C@H](C)c3cc(N)cc(C(F)(F)F)c3)n1)CN(c1ccc(Br)cn1)CC2` [Example 42, N-[(1R)-1-[3-amino-5-(trifluoromethyl)phenyl]ethyl]-6-(5-bromo-2-pyridyl)-2-methyl-7,8-dihydro-5H-pyrido[4,3-d]pyrimidin-4-amine]: the Kd in assay [1] is greater than 400 nM. Besides, the IC50 in assay [2] is greater than 1000 nM.
For `Cc1nc2c(c(N[C@H](C)c3cc(N)cc(C(F)(F)F)c3)n1)CN(C)C2` [Example 43], in that order: greater than 400 nM and greater than 1000 nM.
For `Cc1nc2c(c(N[C@H](C)c3cc(N)cc(C(F)(F)F)c3)n1)CN(c1ccc(Br)cn1)C2` [Example 44, N-[(1R)-1-[3-amino-5-(trifluoromethyl)phenyl]ethyl]-6-(5-bromo-2-pyridyl)-2-methyl-5,7-dihydropyrrolo[3,4-d]pyrimidin-4-amine], in that order: greater than 400 nM and greater than 1000 nM.
For `CCOCCS(=O)(=O)N1Cc2nc(Cl)nc(N[C@H](C)c3cc(N)cc(C(F)(F)F)c3)c2C1` [Example 50] the same measures were greater than 400 nM and greater than 1000 nM.
Consider `COc1cc(OC)nc(C(=O)N2Cc3nc(Cl)nc(N[C@H](C)c4cc(N)cc(C(F)(F)F)c4)c3C2)n1` [Example 63], for which the Kd in assay [1] is less than 400 nM. The compound also yielded an IC50 in assay [2] greater than 1000 nM.
For `C[C@@H](Nc1nc(Cl)nc2c1CN(C(=O)c1nccnn1)C2)c1cc(N)cc(C(F)(F)F)c1` [Example 64] the same measures were greater than 400 nM and greater than 1000 nM.
For `C[C@@H](Nc1nc(Cl)nc2c1CN(C(=O)c1cnccn1)C2)c1cc(N)cc(C(F)(F)F)c1` [Example 66], in that order: greater than 400 nM and greater than 1000 nM.
Take `COc1cccc(C(=O)N2Cc3nc(Cl)nc(N[C@H](C)c4cc(N)cc(C(F)(F)F)c4)c3C2)n1` [Example 67]: in assay [1], the Kd was greater than 400 nM. In assay [2], this compound came in with an IC50 greater than 1000 nM.
For `COc1cncc(C(=O)N2Cc3nc(Cl)nc(N[C@H](C)c4cc(N)cc(C(F)(F)F)c4)c3C2)n1` [Example 69], in that order: greater than 400 nM and greater than 1000 nM.
For `COc1cccnc1C(=O)N1Cc2nc(Cl)nc(N[C@H](C)c3cc(N)cc(C(F)(F)F)c3)c2C1` [Example 74], in that order: less than 400 nM and less than 1000 nM.
Turning to `C[C@@H](Nc1nc(Cl)nc2c1CN(C(=O)c1ccc(-n3ccnc3)cn1)C2)c1cc(N)cc(C(F)(F)F)c1` [Example 76], the Kd in assay [1] was greater than 400 nM. Moreover, in assay [2], the IC50 was greater than 1000 nM.
On to `C[C@@H](Nc1nc(Cl)nc2c1CN(C(=O)C1CC3(CCNCC3)C1)C2)c1cc(N)cc(C(F)(F)F)c1` [Example 79], for which the Kd in assay [1] is less than 400 nM.
For the compound `C[C@@H](Nc1nc(Cl)nc2c1CN(C(=O)c1ccc3c(n1)OCCO3)C2)c1cc(N)cc(C(F)(F)F)c1` [Example 80], the Kd in assay [1] is greater than 400 nM. In assay [2], this compound had an IC50 greater than 1000 nM.
For `C[C@@H](Nc1nc(Cl)nc2c1CN(C(=O)C1CC3CCC(C1)O3)C2)c1cc(N)cc(C(F)(F)F)c1` (some centres unmarked) [Example 81], in that order: less than 400 nM and less than 1000 nM.
As to `C[C@@H](Nc1nc(Cl)nc2c1CN(C(=O)c1csc(N3CCOCC3)n1)C2)c1cc(N)cc(C(F)(F)F)c1` [Example 85], the Kd in assay [1] was greater than 400 nM. The same compound had a half-maximal inhibitory concentration (IC50) in assay [2] greater than 1000 nM.
As to `C[C@@H](Nc1nc(Cl)nc2c1CN(C(=O)C1(N)CCCOC1)C2)c1cc(N)cc(C(F)(F)F)c1` (some centres unmarked) [Example 88], the Kd in assay [1] was less than 400 nM.
Still for that read-out and setting: next, `C[C@@H](Nc1nc(Cl)nc2c1CN(C(=O)C1CC3(CNC3)C1)C2)c1cc(N)cc(C(F)(F)F)c1` [Example 98]: less than 400 nM; `C[C@@H](Nc1nc(Cl)nc2c1CN(C(=O)c1cc3c(s1)CCOC3)C2)c1cc(N)cc(C(F)(F)F)c1` [Example 105]: greater than 400 nM.
Same read-out and setting: next, `C[C@@H](Nc1nc(Cl)nc2c1CN(C(=O)C1CC(=O)N(c3ccc4c(c3)OCO4)C1)C2)c1cc(N)cc(C(F)(F)F)c1` (some centres unmarked) [Example 106]: less than 400 nM; `COC(=O)N1Cc2nc(C)nc(N[C@H](C)c3cc(N)cc(C(F)(F)F)c3)c2C1` [Example 117, methyl 4-{[(1R)-1-[3-amino-5-(trifluoromethyl)phenyl]ethyl]amino}-2-methyl-5H,6H,7H-pyrrolo[3,4-d]pyrimidine-6-carboxylate]: greater than 400 nM; `C[C@@H](Nc1nc(Cl)nc2c1CN(C(=O)N1CCc3ncncc3C1)C2)c1cc(N)cc(C(F)(F)F)c1` [Example 144]: less than 400 nM.
On the same count and under the same terms, next, `C[C@@H](Nc1nc(Cl)nc2c1CN(C(=O)N1C[C@H]3COC[C@H]3C1)C2)c1cc(N)cc(C(F)(F)F)c1` [Example 149]: less than 400 nM; `C[C@@H](Nc1nc(Cl)nc2c1CN(C(=O)N1CC3CCC(C1)O3)C2)c1cc(N)cc(C(F)(F)F)c1` [Example 153]: less than 400 nM.
On to `C[C@@H](Nc1nc(Cl)nc2c1CN(C(=O)N1CCC(O)CC1)C2)c1cc(N)cc(C(F)(F)F)c1` [Example 155], for which, in assay [1], the Kd is less than 400 nM.
On to `C[C@@H](Nc1nc(Cl)nc2c1CN(C(=O)N1CC3(CCCO3)C1)C2)c1cc(N)cc(C(F)(F)F)c1` [Example 156], for which the Kd in assay [1] is less than 400 nM.
On the same count and under the same terms, in the case of `C[C@@H](Nc1nc(Cl)nc2c1CN(C(=O)N1CCC(C)(N)CC1)C2)c1cc(N)cc(C(F)(F)F)c1` [Example 157] it was less than 400 nM; in that of `C[C@@H](Nc1nc(Cl)nc2c1CN(C(=O)N1C3CCC1COC3)C2)c1cc(N)cc(C(F)(F)F)c1` [Example 158], less than 400 nM; in that of `C[C@@H](Nc1nc(Cl)nc2c1CN(C(=O)N1CC[C@H](O)C1)C2)c1cc(N)cc(C(F)(F)F)c1` [Example 161], less than 400 nM.
Still for that read-out and setting: next, `C[C@@H]1COC[C@H](C)N1C(=O)N1Cc2nc(Cl)nc(N[C@H](C)c3cc(N)cc(C(F)(F)F)c3)c2C1` [Example 164]: less than 400 nM.
Still for that read-out and setting: in the case of `C[C@@H](Nc1nccc2nc(C(=O)N3CCNCC3)cn12)c1cccc(C(F)F)c1F` [Example 530, [5-[[(1R)-1-[3-(difluoromethyl)-2-fluoro-phenyl]ethyl]amino]imidazo[1,2-c]pyrimidin-2-yl]-piperazin-1-yl-methanone hydrochloride] it was less than 400 nM.
Regarding `CC(Nc1nc(Cl)nc2c1CN(C(=O)N1CCOCC1)C2)c1cc(N)c(F)c(C(F)(F)F)c1` (centres unmarked) [Example 533, [4-[1-[3-amino-4-fluoro-5-(trifluoromethyl)phenyl]ethylamino]-2-chloro-5,7-dihydropyrrolo[3,4-d]pyrimidin-6-yl]-morpholino-methanone], the IC50 is less than 1000 nM in assay [3] (setting [4]) and greater than 1000 nM in assay [2].
Regarding `CC(Nc1nc(Cl)nc2c1CN(C(=O)N1CCOCC1)C2)c1cccc(C2CC2)c1` (centres unmarked) [Example 534, [2-chloro-4-[1-(3-cyclopropylphenyl)ethylamino]-5,7-dihydropyrrolo[3,4-d]pyrimidin-6-yl]-morpholino-methanone], the IC50 in assay [3] (PC-9, 1 h) is greater than 1000 nM; in assay [2] it was greater than 1000 nM.
Consider `CC(Nc1nc(Cl)nc2c1CN(C(=O)N1CCOCC1)C2)c1cccc(S(N)(=O)=O)c1` (centres unmarked) [Example 535, 3-[1-[[2-chloro-6-(morpholine-4-carbonyl)-5,7-dihydropyrrolo[3,4-d]pyrimidin-4-yl]amino]ethyl]benzenesulfonamide], for which the IC50 in assay [3] (PC-9, 1 h) was greater than 1000 nM; in assay [2] it was greater than 1000 nM.
In the case of `COCC(F)(F)c1cccc([C@@H](C)Nc2nc(Cl)nc3c2CN(C(=O)C2(OC)CCOCC2)C3)c1` [Example 536, [2-chloro-4-[[(1R)-1-[3-(1,1-difluoro-2-methoxy-ethyl)phenyl]ethyl]amino]-5,7-dihydropyrrolo[3,4-d]pyrimidin-6-yl]-(4-methoxytetrahydropyran-4-yl)methanone], the IC50 in assay [3] (setting [4]) and in assay [2] was less than 1000 nM in each case.
